Experimental findings from patent US12285395B2, “Pharmaceutical composition for preventing or treating allodynia caused by anticancer agents” (UNIVERSITY-INDUSTRY COOPERATION GROUP OF KYUNG HEE …, priority 2018, dated 2025) are described below.

Experiment [1] has as its system cold allodynia induced by paclitaxel. Briefly: Cold allodynia (acetone application), paclitaxel animal model, oral cinnamic acid. In kind it is in vivo, c57/bl6 mice. Here is the method:
Six-week-old mice (c57/bl6 mice) were prepared as an experimental animal. Paclitaxel (Sigma-Aldrich) dissolved at a concentration of 6 mg/mL in a 1:1 solution of Cremophor EL and ethanol was diluted to a concentration of 2 mg/mL and intraperitoneally injected 4 times at 2 mg/kg. The dosage was administered every other day on days 0, 2, 4, and 6. Significant pain was observed from about 10 days after the first dosage. The reaction that occurred by applying about 20 μL of acetone to the soles of both rear paws of the experimental animal was observed and recorded for about 15 s. Behaviors that are criteria for recording are an avoidance reaction, a behavior of shaking the soles of the paw, and a behavior of licking the soles of the paw. The evaluation was repeated a total of three times, and the average of the number of recorded behaviors was confirmed. As a pre-behavioral experiment, 50 mg/kg and 100 mg/kg of cinnamic acid was orally administered to experimental animals induced with allodynia, and the effects after 1 h and 2 h were confirmed.

Experiment [2] relates to mechanical allodynia induced by oxaliplatin. Description: Mechanical allodynia (von Frey filament 0.4 g), oxaliplatin animal model, oral cinnamic acid. The conditions noted are these: mice, 10 mg/kg oral (FIG. 1). The format is in vivo, c57/bl6 mice. Here is the method: (§1) Six-week-old mice (c57/bl6 mice) were prepared as an experimental animal.
(§2) Oxaliplatin (Sigma-Aldrich) dissolved in a 5% glucose solution at a concentration of 2 mg/mL was singly administered intraperitoneally to the experimental animal in an amount of 6 mg/kg. Significant pain was observed from about 3 days after intraperitoneal administration.
The number of reactions was recorded by stimulating the soles of both hind paws of the experimental animal 10 times using a von Frey filament at a pressure of 0.4 g.
The behaviors that are criteria for recording are an avoidance reaction and a behavior of licking the soles of the paw. The recording for both paws was averaged and confirmed.
(§3) Experimental animals induced with allodynia were selected through a pre-behavioral experiment, and the effects were confirmed at 2 h after oral administration of 10 mg/kg of cinnamic acid.

Experiment [3] has as its system oxaliplatin-induced mechanical allodynia. Briefly: von Frey filament test (up-down method), oxaliplatin-induced mechanical allodynia, intraperitoneal administration. In kind it is in vivo, Sprague Dawley (SD) rats. Here is the method:
Cinnamic acid (trans-cinnamic acid, Wako Pure Chemical Industries, Osaka, Japan) and cinnamaldehyde (Wako Pure Chemical Industries, Osaka, Japan) were dissolved in 10% dimethyl sulfoxide (DMSO, Sigma) (adjusted to pH 7 with 2 M HCl and 5 M NaOH) and 1% Tween 20 (Sigma), respectively. The final volume of 10% DMSO and 1% Tween 20 used in the experiment was […] rat. Cinnamic acid and cinnamaldehyde (10 mg/kg, 20 mg/kg, and 40 mg/kg) (i.p.) at different concentrations were administered to rats with cold allodynia and mechanical allodynia.
Seven-week-old male Sprague Dawley (SD) rats (180 g to 210 g, 95 rats total, Young Bio, Gyeonggi, Korea) were fed freely with feed and water in cages. The room temperature was maintained at 23±2° C. and a 12 h/12 h contrast cycle was maintained. All procedures described in the present disclosure were approved by the Animal Care and Use Committee of Kyunghee University (KHUASP[SE]-18-153) and followed the guidelines of the International Pain Research Association.
In order to measure cold allodynia and mechanical allodynia, according to a previous method (Flatters, S J; Bennett, G J Ethosuximide reverses paclitaxel- and vincristine-induced painful peripheral neuropathy. Pain 2004, 109, 150-161), an acetone drop test and a von Frey filament test (up-down method, Linton Instrumentation, Norfolk, UK) were performed, respectively. The rats were trained for one week before the start of the experiment to adapt to the touch and the experimental procedure. The rats were stabilized for 30 min before testing in a clear plastic box (20 cm×20 cm×14 cm) with a wire mesh bottom, while not recognizing the injection of oxaliplatin and other drugs.
For the mechanical allodynia test, paw withdrawal thresholds were measured in the right hind paw using a von Frey filament. Dixon's up-down method and Chaplan's calculation method were used, and a withdrawal threshold of 15 g was measured as a cut-off. In order to confirm the effects of cinnamaldehyde and cinnamic acid at different concentrations over time, the behavioral experiment was performed before injection of cinnamic acid and cinnamaldehyde (time point of 0 min) and at time points of 30 min, 60 min, and 120 min after injection.
Oxaliplatin (Wako Pure Chemical Industries, Osaka, Japan) was dissolved in a 5% glucose solution at a concentration of 2 mg/mL and injected intraperitoneally at a dose of 6 mg/kg. The same volume of 5% glucose solution (i.p.) was administered to a control.
All data are expressed as mean±S.E.M. (Standard error of the mean). The data in FIG. 4 was analyzed by a paired t-test (FIGS. 4A and 4B) or an unpaired t-test (FIG. 4C). The data in FIGS. 5 and 6 were expressed as mean±S.E.M. and analyzed by a Bonferroni post-test after one-way ANOVA to evaluate a statistical difference between groups. The data in FIG. 7A were analyzed using Dunnett's multiple comparisons test after two-way ANOVA. The 95% reliability was considered to be statistically significant.

The subject of experiment [4] is mechanical allodynia induced by vincristine. Description: Mechanical allodynia (von Frey filament 0.4 g), vincristine animal model, oral cinnamic acid. The format is in vivo, c57/bl6 mice. Conditions: mice. The procedure:
Six-week-old mice (c57/bl6 mice) were prepared as an experimental animal. Vincristine at a concentration of 1 mg/mL was injected intraperitoneally for 7 consecutive days at 0.1 mg/kg. Significant pain was observed from about 10 days after the first injection. The number of reactions was recorded by stimulating the soles of both hind paws of the experimental animal 10 times using a von Frey filament at a pressure of 0.4 g. The behaviors that are criteria for recording are an avoidance reaction and a behavior of licking the soles of the paw. The recording for both paws was averaged and confirmed. Experimental animals induced with allodynia were selected through a pre-behavioral experiment and orally administered with 50 mg/kg and 100 mg/kg of cinnamic acid, and the effects after 1 h and 2 h were confirmed.

The test system of experiment [5] is cold allodynia induced by oxaliplatin. Briefly: Cold allodynia (acetone application), oxaliplatin animal model, oral cinnamic acid. The format is in vivo, c57/bl6 mice. The procedure: as §1, §2
The reaction that occurred by applying about 20 μL of acetone to the soles of both rear paws of the experimental animal was observed and recorded for about 15 s.
Behaviors that are criteria for recording are an avoidance reaction, a behavior of shaking the soles of the paw, and a behavior of licking the soles of the paw. The evaluation was repeated a total of three times, and the average of the number of recorded behaviors was confirmed.
as §3

Turning to `O=C(O)/C=C/c1ccccc1` [cinnamic acid], the “time after administration up to which pain relief effect on cold allodynia was shown” value is reported as “up to 1 h” in experiment [1] (high dose 100 mg/kg p.o.) and “up to 2 h” in experiment [5] (low dose 10 mg/kg p.o.). The “pain relief effect on cold allodynia” value in experiment [1] (mice, 50 mg/kg oral (FIG. 2)) is “no significant pain relief effect”. Also, the “pain relief effect on cold allodynia compared to control” value in experiment [1] (mice, 100 mg/kg oral, after 1 h (FIG. 2)) is “significant pain relief effect”. The “pain relief effect on mechanical allodynia compared to control (vehicle)” value in experiment [2] is “no significant pain relief effect”. Moreover, the “effect on oxaliplatin-induced mechanical allodynia” value in experiment [3] (10 mg/kg i.p., 60 min after injection (FIG. 5B)) is reported as “remarkable effect”; in experiment [3] (10, 20 and 40 mg/kg i.p., 30, 60, 120 min after injection (FIG. 5B, FIG. 6)), “significantly alleviated”. Also, the “anti-allodynic effect on mechanical allodynia” value in experiment [3] (20 mg/kg i.p., all time points, compared with 10 and 40 mg/kg (FIG. 5B)) is recorded as “strongest anti-allodynic effect among the three doses”. For the same compound, the “pain relief effect on mechanical allodynia” value in experiment [4] (50 mg/kg oral (FIG. 3)) was “no significant pain relief effect”. Moreover, the “pain relief effect on mechanical allodynia compared to control” value in experiment [4] (100 mg/kg oral (FIG. 3)) is reported as “no significant pain relief effect”. The “pain relief effect on cold allodynia compared to control (vehicle)” value in experiment [5] (mice, 10 mg/kg oral, 2 h after administration (FIG. 1)) was “significant pain relief effect”.
